This note sets out measurements from US20260297095A1, “NOVEL PYRROLOTRIAZINE DERIVATIVE AND USE THEREOF” (Pelemed Co., Ltd., priority 2024, published 2026).

In one assay the target is T1, TEAD (Homo sapiens).
T1 construct: lentiviral TEAD luciferase reporter read-out
Description: TEAD inhibition, KYSE-70 TEAD luciferase reporter cell line. The assay is classed as cell-based. Particulars: KYSE-70 TEAD luciferase reporter cells, 24 hours, normalized by cell viability; read-out: KYSE70 TEAD IC50. On the procedure:
To evaluate the inhibitory activity on TEAD activity in KYSE-70 cells in which YES1 is overexpressed, the following experiment was performed.
TEAD luciferase reporter lentivirus (BPS Bioscience; TEAD luciferase reporter lentivirus) was co-cultured with KYSE-70 cell line for 48 hours, and then 1 μg/ml puromycin (Invitrogen) was added to the culture to induce cell death only in cells that were not infected with the virus, thereby generating a KYSE-70 cell line into which the TEAD luciferase reporter was introduced. The KYSE-70 TEAD luciferase reporter cell line was cultured in RPMI-1640 (Capricorn) supplemented with 10% FBS (Cellgro). The cells were seeded 24 hours prior to compound treatment into two 96-well F-bottom clear plates (Greiner) and two white clear bottom 96-well plates (Greiner), at 20,000 cells in 180 μL medium per well.
The 10 mM compound was diluted 100-fold in medium to prepare a 100 μM compound, then placed in a 96-well plate and further 3-fold diluted in medium to prepare a compound plate with concentrations ranging from 0.046 μM to 100 μM. 20 μL of each compound from the drug plate was injected into the cell-seeded plates to prepare the final concentrations 0.0046 μM to 10 μM. For TEAD activity measurement, 24 hours after compound treatment on the white clear bottom 96-well plate, 100 μL of medium was removed from each well, and 100 μL of One-Step™ Luciferase Assay System solution was added. After reacting at room temperature for 15 minutes, luminescence intensity was measured using a microplate reader (VICTOR X3, PerkinElmer). Since TEAD activity values needed to be normalized by cell viability, a cell viability assay was also performed. For measuring cell viability, 24 hours after compound treatment on the 96-well F-bottom clear plate, 50 μL of 33% trichloroacetic acid was added to each well and was fixed by incubating at 4° C. for 1 hour. After that, the plate was washed 5 times with sterile water, and 100 μL of 0.04% Sulforhodamine B solution in 1% acetic acid was added to react for 1 hour to stain the cells. After staining, the plates were washed 4 times with 1% acetic acid solution and completely dried. Then the Sulforhodamine B bound to cellular proteins was completely dissolved with 10 mM Tris base solution (pH 10.5). The absorbance was measured at a wavelength of 510 nm using a microplate reader (TECAN, sunrise microplate reader). The TEAD activity value and cell viability value were normalized, and a graph was drawn using the GraphPad Prism version 5.0 program, and the IC50 value was calculated.

The target of a further assay is YES1 kinase (Homo sapiens, UniProt P07947). Put plainly: YES1 kinase inhibition, ADP Glo assay (Promega). The settings on record: for YES1 enzyme, % inhibition, 10 nM / inhibition at 0.01 µM: compound 10 nM; for YES1 enzyme, % inhibition, 100 nM / inhibition at 0.1 µM: compound 100 nM; for inhibition at 0.01 µM: read-out: YES1 enzyme, % inhibition, 10 nM; for inhibition at 0.1 µM: read-out: YES1 enzyme, % inhibition, 100 nM; for inhibition at 0.001 µM: read-out: YES1 enzyme, % inhibition, 1 nM. Type of assay: biochemical. The procedure, abridged:
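ADP-Glo luminescence after a 40 min room-temperature reaction of YES1 with ATP and substrate (buffer with MnCl2 and DTT; 10 min compound preincubation) was used as readout. Percent inhibition at 1, 10 and 100 nM compound was calculated relative to negative control after background subtraction, and IC50 values derived.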
On the technique in general: In ADP-Glo the light output rises with the ADP produced.

In assay [1] the test system is KYSE-70 esophageal cancer cell line. Description: Cell growth inhibition of KYSE-70 (Sulforhodamine B). The settings on record: KYSE-70, 72 hours, read-out: KYSE70 GI50. Type of assay: cell-based. The method in brief:
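KYSE-70 cells (YES1-amplified) in RPMI-1640 with 10% FBS were seeded 24 h before treatment with compound at 0.0046–10 µM final. After 72 h, cells were TCA-fixed and stained with sulforhodamine B, with absorbance read at 510 nm. GI50 was derived with a time-zero plate set to 0% and the vehicle control to 100%, in duplicate tests.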

Where two headings read alike, the source gives them in different places.

T1 sequence (P07947 whole entry): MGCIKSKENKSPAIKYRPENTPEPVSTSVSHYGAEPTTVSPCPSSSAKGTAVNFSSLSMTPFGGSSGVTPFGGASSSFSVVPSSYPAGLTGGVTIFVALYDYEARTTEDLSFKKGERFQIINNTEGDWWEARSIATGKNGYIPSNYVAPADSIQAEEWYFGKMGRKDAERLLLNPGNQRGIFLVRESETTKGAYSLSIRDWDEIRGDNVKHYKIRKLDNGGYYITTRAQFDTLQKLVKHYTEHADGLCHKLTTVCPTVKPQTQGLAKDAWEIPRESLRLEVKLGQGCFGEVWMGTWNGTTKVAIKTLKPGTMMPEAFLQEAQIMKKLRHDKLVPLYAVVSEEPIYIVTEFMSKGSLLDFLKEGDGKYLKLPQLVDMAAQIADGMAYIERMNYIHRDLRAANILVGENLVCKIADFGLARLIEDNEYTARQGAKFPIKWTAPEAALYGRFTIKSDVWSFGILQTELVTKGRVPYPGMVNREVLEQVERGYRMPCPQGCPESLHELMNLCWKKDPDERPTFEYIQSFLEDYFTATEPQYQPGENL
YES1 kinase, sequence (P07947 whole entry): as above

For “tert-butyl (4-(4-amino-7-(6-(dimethylamino)pyridin-3-yl)pyrrolo[2,1-f][1,2,4]triazin-5-yl)-2-methoxyphenyl)carbamate [Example 6]”, the IC50 (usually the concentration that inhibits the measured activity by half) at TEAD (Homo sapiens) was not above 100 nM. In addition, at YES1 kinase, the “YES1 enzyme, % inhibition, 10 nM” value was found to be 41% and the “YES1 enzyme, % inhibition, 100 nM” value is on record as 46%. For the same molecule, the GI50 (as a rule, the concentration that inhibits growth by half) in assay [1] lay in the range of 1000 to 10000 nM.
Regarding “tert-butyl (4-(4-amino-7-(4-(methylamino)piperidin-1-yl)pyrrolo[2,1-f][1,2,4]triazin-5-yl)-2-methoxyphenyl)carbamate [Example 58]”, the IC50 is not above 100 nM at TEAD (Homo sapiens) and not above 100 nM on YES1 kinase (class symbols, read-out: YES1 enzyme, IC50). Besides, in assay [1], the GI50 fell in the range of 100 to 1000 nM.
Regarding “tert-butyl (4-(4-amino-7-(4-(dimethylamino)-4-methylpiperidin-1-yl)pyrrolo[2,1-f][1,2,4]triazin-5-yl)-2-methoxyphenyl)carbamate [Example 13]”, the IC50 at TEAD (Homo sapiens) is not above 100 nM. In addition, on YES1 kinase, the “YES1 enzyme, % inhibition, 10 nM” value came out at 77% and the “YES1 enzyme, % inhibition, 100 nM” value is 93%. In assay [1], the GI50 was not above 100 nM.
“tert-butyl (4-(4-amino-7-(4-(tert-butyl)piperazin-1-yl)pyrrolo[2,1-f][1,2,4]triazin-5-yl)-2-methoxyphenyl)carbamate [Example 16]”: on TEAD (Homo sapiens), the IC50 lay in the range of 1000 to 10000 nM. Moreover, on YES1 kinase, the “YES1 enzyme, % inhibition, 10 nM” value worked out at 30% and the “YES1 enzyme, % inhibition, 100 nM” value was 36%. Further, the GI50 in assay [1] is 1000 to 10000 nM.
For “tert-butyl (4-(4-amino-7-(4-aminopiperidin-1-yl)-6-methylpyrrolo[2,1-f][1,2,4]triazin-5-yl)-2-methoxyphenyl)carbamate [Example 78]”, the concentration for half-maximal inhibition (IC50) at TEAD (Homo sapiens) is not above 100 nM. Also, the GI50 in assay [1] was not above 100 nM.
On to “tert-butyl (4-(4-amino-7-(4-(dimethylamino)-3-methoxyphenyl)pyrrolo[2,1-f][1,2,4]triazin-5-yl)-2-methoxyphenyl)carbamate [Example 5]”, for which, on TEAD (Homo sapiens), the IC50 fell in the range of 100 to 1000 nM. Also, on YES1 kinase, the “YES1 enzyme, % inhibition, 10 nM” value was determined as 38% and the “YES1 enzyme, % inhibition, 100 nM” value is 68%. Besides, in assay [1], the GI50 is 100 to 1000 nM.
As for `COc1cc(-c2cc(N3CC4(CCN(C)C4)C3)n3ncnc(N)c23)ccc1NC(=O)OC(C)(C)C` [Example 39, tert-butyl (4-(4-amino-7-(6-methyl-2,6-diazaspiro[3.4]octan-2-yl)pyrrolo[2,1-f][1,2,4]triazin-5-yl)-2-methoxyphenyl)carbamate], on YES1 kinase, the inhibition – broadly, the change of the read-out against control, counted positive when it falls – at 0.01 µM amounted to 57% and the inhibition at 0.1 µM was determined as 89%. Further, in assay [1] (Homo sapiens), the GI50 is not above 100 nM.
With `COCCN1CCN(c2cc(-c3ccc(NC(=O)OC(C)(C)C)c(OC)c3)c3c(N)ncnn23)CC1` [Example 29, tert-butyl (4-(4-amino-7-(4-(2-methoxyethyl)piperazin-1-yl)pyrrolo[2,1-f][1,2,4]triazin-5-yl)-2-methoxyphenyl)carbamate], at YES1 kinase, the inhibition at 0.01 µM amounted to 28% and the inhibition at 0.1 µM was determined as 47%. For the same molecule, in assay [1] (Homo sapiens), the GI50 was more than 10000 nM.
As to `COc1cc(-c2cc(N3CCN(CCN(C)C)CC3)n3ncnc(N)c23)ccc1NC(=O)OC(C)(C)C` [Example 28, tert-butyl (4-(4-amino-7-(4-(2-(dimethylamino)ethyl)piperazin-1-yl)pyrrolo[2,1-f][1,2,4]triazin-5-yl)-2-methoxyphenyl)carbamate], at YES1 kinase, the inhibition at 0.01 µM came out at 41% and the inhibition at 0.1 µM came to 85%. The GI50 in assay [1] (Homo sapiens) lay in the range of 1000 to 10000 nM.
Regarding `COc1cc(-c2cc(N3CCC(C(C)(C)N)CC3)n3ncnc(N)c23)ccc1NC(=O)OC(C)(C)C` [Example 106, tert-butyl (4-(4-amino-7-(4-(2-aminopropan-2-yl)piperidin-1-yl)pyrrolo[2,1-f][1,2,4]triazin-5-yl)-2-methoxyphenyl)carbamate], at YES1 kinase (compound 1 nM), the inhibition at 0.001 µM came to 37%. Also, the inhibition at 0.01 µM on YES1 kinase turned out to be 43%. Also, the GI50 in assay [1] (Homo sapiens) is not above 100 nM.
Turning to `COc1cc(-c2cc(CCN3CCC(N(C)C)CC3)n3ncnc(N)c23)ccc1NC(=O)OC(C)(C)C` [Example 98, tert-butyl (4-(4-amino-7-(2-(4-(dimethylamino)piperidin-1-yl)ethyl)pyrrolo[2,1-f][1,2,4]triazin-5-yl)-2-methoxyphenyl)carbamate], at YES1 kinase, the inhibition at 0.01 µM came to 65% and the inhibition at 0.1 µM was determined as 90%. Besides, in assay [1] (Homo sapiens), the GI50 was not above 100 nM.
For `COc1cc(-c2cc(N3CCC(CC(=O)O)CC3)n3ncnc(N)c23)ccc1NC(=O)OC(C)(C)C` [Example 101, 2-(1-(4-amino-5-(4-((tert-butoxycarbonyl)amino)-3-methoxyphenyl)pyrrolo[2,1-f][1,2,4]triazin-7-yl)piperidin-4-yl)acetic Acid], at YES1 kinase (compound 1 nM), the “YES1 kinase inhibition at 1 nM (in words)” value was “could be inhibited even at a low concentration of 1 nM” and the inhibition at 0.001 µM came to 16%. The inhibition at 0.01 µM at YES1 kinase was 40%. Also, in assay [1] (Homo sapiens), the GI50 was more than 10000 nM.
Regarding `Nc1ncnn2c(N3CCC(N)CC3)cc(-c3ccc(Oc4ccccc4)cc3)c12` [Example 135, 7-(4-aminopiperidin-1-yl)-5-(4-phenoxyphenyl)pyrrolo[2,1-f][1,2,4]triazin-4-amine], at YES1 kinase, the inhibition at 0.01 µM is 62% and the inhibition at 0.1 µM stood at 87%. In addition, the GI50 in assay [1] (Homo sapiens) was not above 100 nM.
In the same order, the values of `COc1cc(-c2cc(-c3ccc(N(C)C)cc3)n3ncnc(N)c23)ccc1NC(=O)OC(C)(C)C` [Example 1, tert-butyl (4-(4-amino-7-(4-(dimethylamino)phenyl)pyrrolo[2,1-f][1,2,4]triazin-5-yl)-2-methoxyphenyl)carbamate] are 17%, 31% and 1000 to 10000 nM.
In the same order, the values of `COc1cc(-c2cc(N3CC[C@@H](N(C)C)C3)n3ncnc(N)c23)ccc1NC(=O)OC(C)(C)C` [Example 10, tert-butyl (R)-(4-(4-amino-7-(3-(dimethylamino)pyrrolidin-1-yl)pyrrolo[2,1-f][1,2,4]triazin-5-yl)-2-methoxyphenyl)carbamate] are 8%, 38% and 1000 to 10000 nM.
In the same order, the values of `COc1cc(-c2cc(N3CCC4(CCCN4C)CC3)n3ncnc(N)c23)ccc1NC(=O)OC(C)(C)C` [Example 24, tert-butyl (4-(4-amino-7-(1-methyl-1,8-diazaspiro[4.5]decan-8-yl)pyrrolo[2,1-f][1,2,4]triazin-5-yl)-2-methoxyphenyl)carbamate] are 50%, 82% and 100 to 1000 nM.
